Laboratory results published in patent US10525159B2, “Liquid preparation for contact lenses comprising hydrolyzed hyaluronic acid derivative and cationic bactericide” (OPHTECS CORPORATION, priority 2016, dated 2020).

Columns and labels:
[1] = Hydrophilicity of SCL by dynamic contact angle measurement (etafilcon A); assay type: physicochemical
Experimental: (§1) SCL having etafilcon A, senofilcon A or balafilcon A as a material was taken out from a blister pack. Moisture on SCL to be measured was wiped off twice with a paper waste cloth, and dien the contact angle was measured using a dynamic contact angle measuring apparatus (automatic contact angle meter DSA100 S manufactured by Krass Company). SCL was set on a sample stage of the dynamic contact angle measuring apparatus in such a manner that die concave surface of the SCL faced upward, and 2 μL of PBS was dropped After dropping, droplets were photographed with a camera after about 10 seconds, and the contact angle between the SCL surface and the droplet was calculated by analysis software.
Next, each SCL was immersed in a PBS solution containing 50 ppm of the hydrolyzed hyaluronic acid derivative. As a control test, each SCL was immersed in PBS. The SCLs were immersed in the respective solutions overnight, and then subjected to cycle treatment under the condition of immersion of the SCL in PBS for 8 hours in conformity to actual wear. The cycle treatment was repeated, and fir SCL 1 day after immersion and 13 days after immersion, the contact angle was calculated in die same manner as described above.
(§2) Further, each SCL was immersed in a PBS solution containing 50 ppm of Na hyaluronate instead of die hydrolyzed hyaluronic add derivative, and die contact angle was calculated in die same manner as in the case of the hydrolyzed hyaluronic acid derivative.

[2] = Hydrophilicity of SCL by dynamic contact angle measurement (balafilcon A); assay type: physicochemical; conditions: FIG. 7
Experimental: as §1
(§3) Next, each SCL was immersed in a PBS solution containing 50 ppm of the hydrolyzed hyaluronic acid derivative. As a control test, each SCL was immersed in PBS. […] The cycle treatment was repeated, and fir SCL 1 day after immersion and 13 days after immersion, the contact angle was calculated in die same manner as described above.
as §2

[3] = Hydrophilicity of SCL by dynamic contact angle measurement (senofilcon A); assay type: physicochemical; conditions: FIG. 9
Experimental: as §1, §3, §2

both eyes of 15 subjects = assay: Suppression of corneal staining: SPK (superficial punctate keratitis) score in subjects; assay type: in vivo; conditions: 50 ppm in solution A; 15 subjects (30 eyes); conclusion from the SPK score
[4] = PBS containing 50 ppm, risk ratio of less than 5%

For “hydrolyzed alkyl (C12-13) glyceryl hyaluronate [hydrolyzed hyaluronic acid derivative]”, the “contact angle as compared to SCL immersed in PBS, or PBS containing 50 ppm of Na hyaluronate” value ([1]; etafilcon A SCL, PBS containing 50 ppm, Mann-Whitney U test, FIG. 5) was “significantly smaller”, the “contact angle of SCL immersed for 13 days compared with 1 day” value (“contact angle … compared with 1 day” for short) ([1]; etafilcon A SCL, PBS containing 50 ppm, risk ratio of less than 5%, FIG. 5) was “significantly smaller” and the “contact angle as compared to Na hyaluronate” value ([1]; summary for all of the three kinds of SCL (etafilcon A, balafilcon A, senofilcon A)) was “smaller contact angle”. For the same substance, the “contact angle as compared to SCL immersed in PBS, or PBS containing 50 ppm of Na hyaluronate” value ([2]; Mann-Whitney U test) was “significantly smaller”, the “contact angle … compared with 1 day” value [2, 4] was “significantly smaller” and the “contact angle as compared to SCL immersed in PBS, or PBS containing 50 ppm of Na hyaluronate” value ([3]; Mann-Whitney U test) was “significantly smaller”. For the same substance, the “contact angle … compared with 1 day” value [3, 4] was “significantly smaller” and the “effect on occurrence of corneal staining” value (both eyes of 15 subjects) was “effect of suppressing occurrence of corneal staining”.
